The nature of data set [1]: Rat liver microsome stability assay. It counts as in vitro ADME. Conditions: for half-life at 0.5 μM: 0.25 mg/mL microsomal protein, read-out: Stability in rat liver microsomes (t1/2 in minutes). For orientation: Microsomes from liver hold many membrane-bound enzymes, among them those of drug oxidation.
Data set [2] is described as follows: Mouse liver microsome stability assay. It counts as in vitro ADME. Particulars: male, CD1, mouse, microsomes, pH 7.4.
Data set [3] can be described thus: Human liver microsome stability assay. Conditions: human, microsomes, pH 7.4; for half-life at 0.5 μM: both sexes. The data set is classed as in vitro ADME.
Data set [4] addresses human BRD4 second bromodomain (BDII_E352-M457) (Homo sapiens (Human), UniProt O60885). Kind of data set: TR-FRET bromodomain binding assay, BRD4 second bromodomain. A general note: In TR-FRET formats the signal depends on donor and acceptor labels being close together.
Data set [5] concerns the target human BRD4 first bromodomain (BDI_K57-E168) (Homo sapiens (Human), UniProt O60885). Kind of data set: TR-FRET bromodomain binding assay, BRD4 first bromodomain.
In data set [6] the test system is breast cancer cell line MX-1. Kind of data set: MX-1 cell line proliferation assay. The data set is classed as cell-based, human. Particulars: MX-1 cells, 3-day proliferation, Cell Titer Glo, read-out: Cellular proliferation: EC50.
Setting [7] is: rat liver microsomes (male Sprague-Dawley), 0.5 μM test compound, pH 7.4, 37° C.

Read-outs that look alike come from different tables or passages of the source.

As for `Cn1cc(-c2cc(C(=O)NCCN3CCCC3=O)ccc2Oc2ccc(F)cc2F)c2cc[nH]c2c1=O` [Example 122, 4-(2,4-difluorophenoxy)-3-(6-methyl-7-oxo-6,7-dihydro-1H-pyrrolo[2,3-c]pyridin-4-yl)-N-[2-(2-oxopyrrolidin-1-yl)ethyl]benzamide], the results for the half-life at 0.5 μM in data set [1] (setting [7]), in data set [2] and in data set [3] were 16 min, 2 min and 8 min, respectively.
For `Cn1cc(-c2cc(C(=O)NCCc3c[nH]c4ccccc34)ccc2Oc2ccc(F)cc2F)c2cc[nH]c2c1=O` [Example 133, 4-(2,4-difluorophenoxy)-N-[2-(1H-indol-3-yl)ethyl]-3-(6-methyl-7-oxo-6,7-dihydro-1H-pyrrolo[2,3-c]pyridin-4-yl)benzamide], in that order: 5 min, 3 min and 4 min.
With `CCS(=O)(=O)N(CC1CC1)c1ccc(Oc2ccc(F)cc2F)c(-c2cn(C)c(=O)c3[nH]ccc23)c1` [Example 343, N-(cyclopropylmethyl)-N-[4-(2,4-difluorophenoxy)-3-(6-methyl-7-oxo-6,7-dihydro-1H-pyrrolo[2,3-c]pyridin-4-yl)phenyl]ethanesulfonamide], the Ki in data set [4] worked out at 4.8 nM; in data set [5], 42.7 nM. Also, the half-life at 0.5 μM was determined as 7 min in data set [1] (setting [7]) and 2 min in data set [3]. In addition, in data set [6] (Homo sapiens, MX1, 72 h), the EC50 was found to be 224 nM.
Consider `Cn1cc(-c2ccccc2C(=O)c2ccc(Cl)cc2)c2cc[nH]c2c1=O` [Example 139, 4-[2-(4-chlorobenzoyl)phenyl]-6-methyl-1,6-dihydro-7H-pyrrolo[2,3-c]pyridin-7-one], for which the half-life at 0.5 μM in data set [1] (setting [7]) worked out at 8 min; in data set [2] it was 7 min; in data set [3] it was 13 min.
Take `CCS(=O)(=O)Nc1ccc(OC2CCOC2)c(-c2cn(C)c(=O)c3[nH]ccc23)c1` (stereo not shown) [Example 66, N-[3-(6-methyl-7-oxo-6,7-dihydro-1H-pyrrolo[2,3-c]pyridin-4-yl)-4-(tetrahydrofuran-3-yloxy)phenyl]ethanesulfonamide]: the Ki in data set [4] came to 3.4 nM; in data set [5], 0.74 nM. The half-life at 0.5 μM in data set [1] (setting [7]) and in data set [3] was > 120 min throughout. The EC50 in data set [6] (Homo sapiens, MX1, 72 h) stood at 33.2 nM.
On to `Cn1cc(-c2cc(C(=O)Nc3ccc4cn[nH]c4c3)ccc2Oc2ccc(F)cc2F)c2cc[nH]c2c1=O` [Example 118, 4-(2,4-difluorophenoxy)-N-(1H-indazol-6-yl)-3-(6-methyl-7-oxo-6,7-dihydro-1H-pyrrolo[2,3-c]pyridin-4-yl)benzamide], for which the half-life at 0.5 μM in data set [1] (setting [7]) came out at 34 min; in data set [2], 18 min; in data set [3] it was 81 min.
`CCS(=O)(=O)c1ccc(O[C@H]2CC[C@@](C)(OC)CC2)c(-c2cn(C)c(=O)c3[nH]ccc23)c1` [Example 268, 4-(5-(ethylsulfonyl)-2-(cis-4-methoxy-4-methylcyclohexyloxy)phenyl)-6-methyl-1H-pyrrolo[2,3-c]pyridin-7(6H)-one]: the figures for the Ki in data set [4] and in data set [5] were 0.57 nM and 0.76 nM, respectively. Further, the “Stability in rat liver microsomes (t1/2 in minutes)” value in data set [1] (rat, microsomes, pH 7.4) was 26 min. In addition, the EC50 in data set [6] turned out to be 6.2 nM. Further, the “Stability in human liver microsomes (t1/2 in minutes)” value in data set [3] is 10 min.
With `CN(C)C(=O)CN1CCN(C(=O)c2ccc(Oc3ccc(F)cc3F)c(-c3cn(C)c(=O)c4[nH]ccc34)c2)CC1` [Example 127, 2-{4-[4-(2,4-difluorophenoxy)-3-(6-methyl-7-oxo-6,7-dihydro-1H-pyrrolo[2,3-c]pyridin-4-yl)benzoyl]piperazin-1-yl}-N,N-dimethylacetamide], the half-life at 0.5 μM in data set [1] (setting [7]) was 71 min; in data set [2] it was 20 min; in data set [3], 44 min.
Turning to `CCN(CC)S(=O)(=O)c1cnc(OCC2CC2)c(-c2cn(C)c(=O)c3[nH]ccc23)c1` [Example 272, 6-(cyclopropylmethoxy)-N,N-diethyl-5-(6-methyl-7-oxo-6,7-dihydro-1H-pyrrolo[2,3-c]pyridin-4-yl)pyridine-3-sulfonamide], the Ki in data set [4] stood at 11.6 nM; in data set [5] it was 10.2 nM. Besides, the values for the half-life at 0.5 μM in data set [1] (setting [7]) and in data set [3] were 4 min and 2 min, respectively. The EC50 in data set [6] (Homo sapiens, MX1, 72 h) was 112 nM.
Take `Cn1cc(-c2ccccc2C(O)c2ccc(Cl)cc2)c2cc[nH]c2c1=O` (stereo not shown) [Example 140, 4-{2-[(4-chlorophenyl)(hydroxy)methyl]phenyl}-6-methyl-1,6-dihydro-7H-pyrrolo[2,3-c]pyridin-7-one]: the half-life at 0.5 μM was determined as 13 min in data set [1] (setting [7]), 18 min in data set [2] and 19 min in data set [3].
For the molecule `CCS(=O)(=O)c1ccc(OC2CCSCC2)c(-c2cn(C)c(=O)c3[nH]ccc23)c1` [Example 264, 4-[5-(ethylsulfonyl)-2-(tetrahydro-2H-thiopyran-4-yloxy)phenyl]-6-methyl-1,6-dihydro-7H-pyrrolo[2,3-c]pyridin-7-one], the Ki in data set [4] and in data set [5] was 1.2 nM each time. The half-life at 0.5 μM in data set [1] (setting [7]) is 6 min; in data set [3], 14 min. Moreover, the EC50 in data set [6] (Homo sapiens, MX1, 72 h) worked out at 17.8 nM.
For the molecule `CCOc1ccc(S(C)(=O)=O)cc1-c1cn(C)c(=O)c2[nH]ccc12` [Example 259, 4-[2-ethoxy-5-(methylsulfonyl)phenyl]-6-methyl-1,6-dihydro-7H-pyrrolo[2,3-c]pyridin-7-one], the Ki in data set [4] worked out at 20.3 nM; in data set [5] it was 24.2 nM. In addition, the half-life at 0.5 μM in data set [1] (setting [7]) was determined as 87 min; in data set [3] it was 117 min. For the same molecule, in data set [6] (Homo sapiens, MX1, 72 h), the EC50 is 123 nM.
In the same order, the values of `Cn1cc(-c2cc(S(C)(=O)=O)ccc2OC2Cc3ccccc3C2)c2cc[nH]c2c1=O` [Example 277, 4-[2-(2,3-dihydro-1H-inden-2-yloxy)-5-(methylsulfonyl)phenyl]-6-methyl-1,6-dihydro-7H-pyrrolo[2,3-c]pyridin-7-one] are 14.3 nM, 6.3 nM, 5 min, 4 min and 21.1 nM.
In the case of `Cn1cc(-c2ccccc2Oc2ccccc2)c2cc[nH]c2c1=O` [Example 1, 6-methyl-4-(2-phenoxyphenyl)-1,6-dihydro-7H-pyrrolo[2,3-c]pyridin-7-one], the Ki in data set [4] is 41 nM; in data set [5], 136 nM. Moreover, in data set [1] (rat liver microsomes (male Sprague-Dawley), 0.5 μM test compound, […] microsomal protein, pH 7.4, 37° C.), the “Stability in rat liver microsomes (t1/2 in minutes)” value stood at 1 min. Further, the EC50 in data set [6] (Homo sapiens, MX1, 72 h) was determined as 137 nM. In data set [3], the half-life at 0.5 μM is 9 min.
On to `Cn1cc(-c2cc(S(=O)(=O)N3CCCC3)ccc2Oc2ccc(F)cc2F)c2cc[nH]c2c1=O` [Example 299, 4-[2-(2,4-difluorophenoxy)-5-(pyrrolidin-1-ylsulfonyl)phenyl]-6-methyl-1,6-dihydro-7H-pyrrolo[2,3-c]pyridin-7-one], for which the Ki was determined as 5 nM in data set [4] and 80.1 nM in data set [5]. Moreover, the half-life at 0.5 μM in data set [1] (setting [7]) was found to be 2 min; in data set [3] it was 1 min. For the same molecule, the EC50 in data set [6] (Homo sapiens, MX1, 72 h) was found to be 36 nM.
In the same order, the values of `Cn1cc(-c2cc(S(=O)(=O)NCc3cccnc3)ccc2OCC2CC2)c2cc[nH]c2c1=O` [Example 333, 4-(cyclopropylmethoxy)-3-(6-methyl-7-oxo-6,7-dihydro-1H-pyrrolo[2,3-c]pyridin-4-yl)-N-(pyridin-3-ylmethyl)benzenesulfonamide] are 32.7 nM, 36.9 nM, 3 min, 0.8 min and 74 nM.
For `CCS(=O)(=O)Cc1ccc(Oc2ccc(F)cc2F)c(-c2cn(C)c(=O)c3[nH]ccc23)c1` [Example 297, 4-{2-(2,4-difluorophenoxy)-5-[(ethylsulfonyl)methyl]phenyl}-6-methyl-1,6-dihydro-7H-pyrrolo[2,3-c]pyridin-7-one], in that order: 5.2 nM, 14.2 nM, 43 min, 83 min and 18.6 nM.
Consider `Cn1cc(-c2ccccc2Oc2ccccc2)c2cc(-c3ccccc3)[nH]c2c1=O` [Example 88, 6-methyl-4-(2-phenoxyphenyl)-2-phenyl-1,6-dihydro-7H-pyrrolo[2,3-c]pyridin-7-one], for which the Ki is 236 nM in data set [4] and 635 nM in data set [5]. In addition, the half-life at 0.5 μM in data set [1] (setting [7]) was found to be 12 min; in data set [3] it was 23 min. In data set [6] (Homo sapiens, MX1, 72 h), the EC50 was > 3000 nM.
For `CN(C)S(=O)(=O)c1cnc(Oc2ccc(F)cc2F)c(-c2cn(C)c(=O)c3[nH]ccc23)c1` [Example 266, 6-(2,4-difluorophenoxy)-N,N-dimethyl-5-(6-methyl-7-oxo-6,7-dihydro-1H-pyrrolo[2,3-c]pyridin-4-yl)pyridine-3-sulfonamide], in that order: 7.8 nM, 21.5 nM, 20 min, 8 min and 56.4 nM.
For `Cn1cc(-c2cc(S(=O)(=O)Nc3ccc(F)cc3)ccc2OCC2CC2)c2cc[nH]c2c1=O` [Example 347, 4-(cyclopropylmethoxy)-N-(4-fluorophenyl)-3-(6-methyl-7-oxo-6,7-dihydro-1H-pyrrolo[2,3-c]pyridin-4-yl)benzenesulfonamide], in that order: 4 nM, 15.6 nM, 6 min, 4 min and 83.9 nM.

Broadly, the Ki is the dissociation constant of the complex between target and ligand, obtained from inhibition or displacement.

The values are drawn from US9296741B2, “Bromodomain inhibitors” (priority 2012, dated 2016).
